Structures can show the parent of a compound that is named as a salt. Each block holds one molecule with its values, some of them ahead of it.
How the values were obtained:
SLC7A8 and PAT4 = experiment: Kyn consumption by activated CD8+ T cells with SLC7A8/PAT4 inhibition or knockdown (ELISA); assay type: cell-based, mouse; settings: Kyn 200 μM, 48 h
Experimental: (3) Scramble shRNA or shRNA against SLC7A8 and PAT4 were delivered via retrovirus to activated CD8^+ T cells for 24 h, and then the transduced T cells were treated with Kyn (200 μM) for 48 h. Kyn levels in the supernatants were determined by ELISA and the Kyn consumption was calculated.

PD-1 [1] = experiment: AhR activity and PD-1 expression in CD8+ T cells with SLC7A8/PAT4 inhibition or knockdown; assay type: cell-based, mouse; settings: for PD-1 upregulation: Kyn 200 μM, 48 h; for AhR activity: T cells treated with transporter inhibitor
Experimental: (4) The experimental steps were the same as those of step (3), except that the expression of PD-1 was analyzed by flow cytometry.

OVA-B16 TRCs = experiment: OT-1 T cell cytotoxicity to OVA-B16 TRCs with SLC7A8/PAT4 inhibition or knockdown; assay type: cell-based, mouse; settings: co-culture
Experimental: (5) Activated OT-1 T cells were transfected with scramble shRNA, PAT4 shRNAs (Sh1 and Sh2) or SLC7A8 shRNAs (Sh1 and Sh2) for 72 h, and then co-cultured with OVA-B16 TRCs. TRC apoptosis was analyzed by flow cytometry.

PD-1 [2] = experiment: Effect of SAR and BCH on PD-1 expression in mouse CD8+ T cells (flow cytometry); assay type: cell-based; settings: 200 μM Kyn + 10 mM SAR or 100 μM BCH, 48 h
Experimental: Mouse splenic CD8^+ T cells were obtained by magnetic bead sorting, and seeded into a U-shaped bottom 96-well plate (100000 cells/well) while anti-CD3/CD28 magnetic beads were added to activate T cells. The culture medium was RPMI-1640 added with 10 ng/mL mouse IL-2 and […] β-mercaptoethanol. Cells were grouped and treated with drugs as follows.
(§1) Control group 1 (PBS): culture medium+PBS;
(§2) Experimental group 2 (Kyn): culture medium+200 μM Kyn;
Experimental group 3 (Kyn+SAR): culture medium+200 μM Kyn+10 mM SAR;
Experimental group 4 (Kyn+BCH): culture medium+200 μM Kyn+100 μM BCH;
(§3) The expression level of PD-1 in CD8^+ T cells of each group was determined by flow cytometry after 48 h.

OVA-B16 cells = experiment: Effect of SAR and BCH on killing of OVA-B16 cells by OT-1 CD8+ T cells (apoptosis, flow cytometry); assay type: cell-based, mouse; settings: T cells pretreated 24 h with 10 mM SAR or 100 μM BCH; co-culture 1:10, 4 hours
Experimental: Splenic CD8^+ T cells of OT-1 mouse were obtained by magnetic bead sorting and seeded into a U-shaped bottom 96-well plate (100000 cells/well). Cells were grouped and treated with drugs as follows.
as §1
Experimental group 2 (SAR): culture medium+10 mM SAR;
Experimental group 3 (BCH): culture medium+100 μM BCH;
After T cells were pretreated for 24 hours, 3D-cultured OVA-B16 cells were co-cultured with OT-1 CD8^+ T cells at a ratio of 1:10, and the apoptosis of OVA-B16 cells was determined by flow cytometry after 4 hours.

PD-1 [3] = experiment: Effect of SAR and BCH on PD-1 expression in human peripheral blood CD8+ T cells (flow cytometry); assay type: cell-based; settings: breast cancer patients, 200 μM Kyn + 10 mM SAR or 100 μM BCH, 48 h
Experimental: Mononuclear cells were isolated and obtained from the peripheral whole blood of breast cancer patients by using Ficoll. CD8^+ T cells were sorted by magnetic beads, and seeded into a U-shaped bottom 96-well plate (100000 cells/well) while anti-CD3/CD28 magnetic beads were added to activate T cells. The culture medium was RPMI-1640 added with 10 ng/mL human IL-2. Cells were grouped and treated with drugs as follows.
as §1, §2
Experimental group 3 (Kyn+SAR): culture medium+200 μM Kyn+10 mM SAR; Experimental group 4 (Kyn+BCH): culture medium+200 μM Kyn+100 μM BCH;
as §3

AhR = experiment: PD-1 expression in activated CD8+ T cells treated with Kyn plus AhR inhibitor (flow cytometry); assay type: cell-based, mouse; settings: Kyn plus inhibitor (DMF 10 or 20 μM), 72 h
Experimental: (4) CD8^+ T cells activated by anti-CD3/CD28 beads were treated with PBS, Kyn or Kyn/DMF (10 or 20 μM) for 72 h. The expression of PD-1 was determined by flow cytometry.

PAT4 and SLC7A8 [4] = experiment: PAT4 and SLC7A8 expression in activated CD8+ T cells (real-time PCR, immunostaining); assay type: cell-based, mouse; settings: activated CD8+ T cells, Kyn/CH-223191 (10 μM) or Kyn/DMF (20 μM), 48 h
Experimental: (2) Activated CD8^+ T cells were treated with PBS or Kyn (200 μM) for 24 h. The expression of PAT4 and SLC7A8 was determined by real-time PCR (left) and immunostaining (right). Bar, […].
(6) The mRNA expression of PAT4 and SLC7A8 was determined in activated CD8^+ T cells treated with PBS, Kyn, Kyn/CH-223191 (10 μM) or Kyn/DMF (20 μM) for 48 h.

PD-1 [5] = experiment: PD-1 expression in human CD8+ T cells treated with Kyn and AhR inhibitors (flow cytometry); assay type: cell-based; settings: human CD8+ T cells, Kyn plus inhibitor (DMF 20 μM), 48 h
Experimental: (4) CD8^+ T cells isolated from PBMCs of patients with breast cancer or lung cancer were activated by anti-CD3/CD28 beads and treated with PBS, Kyn (200 μM) or Kyn/DMF (20 μM) for 48 h. The expression of PD-1 was determined by flow cytometry.
(5) CD8^+ T cells isolated from patients with breast cancer or lung cancer were treated with DMF (20 μM) for 48 h. PD-1 expression was determined by flow cytometry (n=6).

PAT4 and SLC7A8 [6] = experiment: PAT4 and SLC7A8 expression in CD8+ T cells from breast cancer patients (real-time PCR); assay type: cell-based, human; settings: Kyn/DMF (20 μM) or Kyn/CH (50 μM), 48 h
Experimental: (8) CD8^+ T cells from breast cancer patients were treated with PBS, Kyn ([…] (20 μM) or Kyn/CH (50 μM) for 48 h. The expression of PAT4 and SLC7A8 was determined by real-time PCR. The determination results were as shown in FIG. 7I.

PD-1 [7] = experiment: PD-1 expression in activated CD8+ T cells treated with TCDD (qPCR, flow cytometry); assay type: cell-based, mouse; settings: 48 h
Experimental: (7) Activated CD8^+ T cells were treated with TCDD for 48 h and then PD-1 expression was analyzed by qPCR (left) and flow cytometry (right). The data represented mean±SEM.

PD-1 [8] = experiment: PD-1 expression in anti-CD3/CD28 bead-activated CD8+ T cells treated with Kyn or other tryptophan metabolites (flow cytometry); assay type: cell-based, mouse; settings: other tryptophan metabolites 500 μM, 24 h
Experimental: (4) The isolated splenic CD8^+ T cells were incubated with anti-CD3/CD28 beads in the presence of different concentrations of Kyn. PD-1 expression was determined by flow cytometry.
(5) The experimental steps were the same as those of step (4), except that CD8^+ T cells were treated with 200 μM Kyn for different time periods as shown in FIG. 2E.
(6) Anti-CD3/CD28 bead-activated CTLs were treated with PBS, 200 μM Kyn or other metabolites (500 μM) from the tryptophan pathway (melatonin, kynurinic acid and indoxyle sulphate). After 24 h, PD-1 expression was determined by flow cytometry.

[9] = target: T1, tryptophan transporter SLC1A5 (Mus musculus, UniProt P51912); experiment: Effect of GPNA on the uptake of tryptophan by tumor cells (ELISA of lysates); assay type: cell-based; settings: OVA-B16 cells, 50 ng/mL IFN-γ, 24 h
T1 construct: endogenous in cells; host or cells: mouse OVA-B16 melanoma cells
T1 sequence (P51912 1-553): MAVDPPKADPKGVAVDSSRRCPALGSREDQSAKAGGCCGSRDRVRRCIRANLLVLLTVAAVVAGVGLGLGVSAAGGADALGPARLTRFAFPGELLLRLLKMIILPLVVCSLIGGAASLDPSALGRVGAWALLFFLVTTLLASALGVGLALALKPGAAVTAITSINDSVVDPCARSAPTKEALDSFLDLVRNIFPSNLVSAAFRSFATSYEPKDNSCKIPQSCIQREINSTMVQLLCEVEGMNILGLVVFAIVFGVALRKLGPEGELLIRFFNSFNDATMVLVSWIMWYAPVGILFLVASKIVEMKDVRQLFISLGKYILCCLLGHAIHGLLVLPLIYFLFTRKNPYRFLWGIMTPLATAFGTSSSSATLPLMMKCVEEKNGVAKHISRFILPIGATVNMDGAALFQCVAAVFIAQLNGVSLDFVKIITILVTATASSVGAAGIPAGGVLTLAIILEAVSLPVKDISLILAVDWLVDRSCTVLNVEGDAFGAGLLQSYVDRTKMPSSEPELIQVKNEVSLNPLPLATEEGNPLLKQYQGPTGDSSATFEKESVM
Experimental: Mouse OVA-B16 cells were cultured in RPMI-1640 culture medium in vitro and were group and treated as follows.
as §1
Control group 2 (GPNA): culture medium+10 μM GPNA;
Experimental group 3 (IFN-γ): culture medium+50 ng/mL IFN-γ;
Experimental group 4 (IFN-γ+GPNA): culture medium+50 ng/mL IFN-γ+10 μM GPNA;
The cells in each group were collected after 24 h and ultrasonically broken, the concentrations of tryptophan in the lysates were determined by ELISA, and BCA protein assay was carried out at the same time.

Molecule: NC1(C(=O)O)CC2CCC1C2 (centres unmarked) [BCH, 2-amino-2-norbornanecarboxylic acid]
- entry of Kyn into T cells (SLC7A8 and PAT4): blocked
- PD-1 upregulation (PD-1 [1]): abolished
- AhR activity (PD-1 [1]): inhibited
- OT-1 T cell cytotoxicity to OVA-B16 TRCs (OVA-B16 TRCs): enhanced
- expression of PD-1 in CD8+ T cells (PD-1 [2]): significantly reducing
- apoptosis ratio of OVA-B16 tumor cells (OVA-B16 cells): increased significantly
- expression of PD-1 in CD8+ T cells (PD-1 [3]): significantly reducing

Molecule: Cc1ccccc1N=Nc1ccc(NC(=O)c2ccnn2C)c(C)c1 [CH-223191]
- Kyn-dependent upsurge of PD-1 (AhR): thwarted
- Kyn-induced upregulation of SLC7A8 and PAT4 (PAT4 and SLC7A8 [4]): effectively inhibiting
- Kyn-induced PD-1 upregulation (PD-1 [5]): inhibited
- Kyn-induced upregulation of SLC7A8 and PAT4 (PAT4 and SLC7A8 [6]): blocked

Molecule: CNCC(=O)O [SAR, sarcosine]
- entry of Kyn into T cells (SLC7A8 and PAT4): blocked
- PD-1 upregulation (PD-1 [1]): abolished
- AhR activity (PD-1 [1]): inhibited
- OT-1 T cell cytotoxicity to OVA-B16 TRCs (OVA-B16 TRCs): enhanced
- expression of PD-1 in CD8+ T cells (PD-1 [2]): significantly reducing
- apoptosis ratio of OVA-B16 tumor cells (OVA-B16 cells): increased significantly
- expression of PD-1 in CD8+ T cells (PD-1 [3]): significantly reducing

Molecule: Clc1cc2c(cc1Cl)Oc1cc(Cl)c(Cl)cc1O2 [TCDD]
- PD-1 expression (PD-1 [7]): upregulated

Molecule: O=S(=O)(O)Oc1c[nH]c2ccccc12 [indoxyl sulfate]
- PD-1 expression (PD-1 [8]): none of them was able to alter PD-1 expression

Molecule: O=C(O)c1cc(=O)c2ccccc2[nH]1 [kynurenic acid]
- PD-1 expression (PD-1 [8]): none of them was able to alter PD-1 expression

Molecule: COc1ccc2[nH]cc(CCNC(C)=O)c2c1 [melatonin]
- PD-1 expression (PD-1 [8]): none of them was able to alter PD-1 expression

- uptake of tryptophan by tumor cells [9]: significantly increasing
B1: IFN-γ: recombinant IFN-γ purchased from R & D Systems (protein, UniProt P01579 24-161, looked up)
Interferon gamma: QDPYVKEAENLKKYFNAGHSDVADNGTLFLGILKNWKEESDRKIMQSQIVSFYFKLFKNFKDDQSIQKSVETIKEDMNVKFFNSNKKKRDDFEKLTNYSVTDLNVQRKAIHELIQVMAELSPAAKTGKRKRSQMLFRG

— US20210154162A1, “DRUG AND PHARMACEUTICAL COMPOSITION CONTAINING TRANSPORT PROTEIN INHIBITOR, AND USE” (Institute of Basic Medical Sciences Chinese Academy of …, priority 2018, published 2021)
